Assay results taken from patent US20110288042A1, “STABLE HIGHLY PURE AZACITIDINE AND PREPARATION METHODS THEREFOR” (CHEMAGIS LTD., priority 2007, published 2011).

Tests used:
Format in all cases: physicochemical
[1] = Induced degradation of 5-azacytidine in solid state (observation, FT-IR, HPLC); details: for Area (%) at RRT 1.00 (5-azacytidine) / Area (%) of peak at RRT 0.63 / Area (%) of peak at RRT 2.01 / Area (%) of peak at RRT 2.05 / Total impurities (%): solid
Description: (§1) The HPLC measurements were performed using a system equipped with an Inertsil C18 column (ODS-2, 5 microns, 250×4.6 mm (ODS-167)). Other parameters of the system were as follows: • Detection: UV detector operated on 242 nm • Column temperature: 20° C. • Run time: 45 minutes • Injection volume: 10 μl • Flow rate: 1.0 ml/minute • Sample set temperature: 5° C. • Sample concentration: about 1.65 mg/ml • Diluent: Mixture of 30% 10 mM ammonium acetate and 70% THF
(§2) Analyses were performed using the following mobile phase • Mobile Phase (Eluent) A: 10 mM ammonium acetate • Mobile Phase (Eluent) B: 60% 10 mM ammonium acetate, 40% MeOH
The sample was placed in a UV chamber and exposed to UV light for 48 hours. • Accelerated conditions [40±2° C./75±5% Relative Humidity (RH)].
At the end of the stipulated time period, the physical descriptions of each sample were noted down. Identification tests were performed by FT-IR, and purity checks were performed by HPLC analysis. The protected sample, as defined herein, is the reference storage material used for carrying out the experiments detailed in Tables 7 and 8.

[2] = Induced degradation of 5-azacytidine in liquid state (HPLC)
Description: as §1, §2
Acidic hydrolysis—blank preparation: Hydrochloric acid (5 ml, 0.01M HCl) was diluted to 10 ml with the diluent. […] An aliquot (5 ml) was diluted to 10 ml with the diluent. The blank preparation and sample preparation were injected to the HPLC system by using the chromatographic conditions as mentioned in example 8. • Basic hydrolysis—blank preparation: Sodium hydroxide (5 ml, 0.01M NaOH) was diluted to 10 ml with the diluent. […] An aliquot (5 ml) was diluted to 10 ml with diluent. […] An aliquot (5 ml) was diluted to 10 ml with the diluent. The blank and sample preparations were injected to the HPLC system using the chromatographic conditions as detailed in example 8. • Photolysis—blank preparation: The diluent (50 ml) was mixed under UV light for 48 hours. […] The blank preparation and sample preparation were injected to the HPLC system using the chromatographic conditions as mentioned in example 8.

[3] = Solution stability of 5-azacytidine in the HPLC diluent; details: HPLC diluent, about 1.65 mg/ml
Description: as §1, §2

[4] = accelerated conditions (40 ± 2° C., 75 ± 5% RH), 48 hours
[5] = exposure to ambient conditions, visible light 48 hours
[6] = exposure to elevated temperature (105° C.), 48 hours
[7] = Acidic: 0.01M HCl, room temperature, about 1 hour
[8] = Basic: 0.01M NaOH, room temperature, about 1 hour
[9] = Oxidation: 10% hydrogen peroxide solution, room temperature, about 1 hour
[10] = Photolysis: in the diluent, UV light 48 hours

FT-IR spectra changes ([1]; solid state induced degradation): did not show any significant changes
Stability in solid state (HPLC analysis) ([1]; solid state, Tables 7 and 8): stable to heat and IJV light
Change in color of the sample ([1]; solid state, exposed to an elevated temperature): slight change in color
Area (%) at RRT 1.00 (5-azacytidine) [1, 4]: 97.04%
Area (%) of peak at RRT 0.63 [1, 4]: 1.90%
Area (%) of peak at RRT 2.01 [1, 4]: 0.80%
Area (%) of peak at RRT 2.05 [1, 4]: 0.14%
Total impurities (%) [1, 4]: 2.96%
Area (%) at RRT 1.00 (5-azacytidine) ([1]; exposure to UV light, 48 hours): 96.64%
Area (%) of peak at RRT 0.63 ([1]; exposure to UV light, 48 hours): 1.66%
Area (%) of peak at RRT 2.01 ([1]; exposure to UV light, 48 hours): 1.35%
Area (%) of peak at RRT 2.05 ([1]; exposure to UV light, 48 hours): 0.24%
Total impurities (%) ([1]; exposure to UV light, 48 hours): 3.36%
Area (%) at RRT 1.00 (5-azacytidine) [1, 5]: 96.75%
Area (%) of peak at RRT 0.63 [1, 5]: 1.52%
Area (%) of peak at RRT 2.01 [1, 5]: 1.36%
Area (%) of peak at RRT 2.05 [1, 5]: 0.27%
Total impurities (%) [1, 5]: 3.25%
Area (%) at RRT 1.00 (5-azacytidine) [1, 6]: 96.61%
Area (%) of peak at RRT 0.63 [1, 6]: 2.00%
Area (%) of peak at RRT 2.01 [1, 6]: 1.01%
Area (%) of peak at RRT 2.05 [1, 6]: 0.17%
Total impurities (%) [1, 6]: 3.39%
Area (%) at RRT 1.00 (5-azacytidine) ([1]; protected sample (storage)): 96.72%
Area (%) of peak at RRT 0.63 ([1]; protected sample (storage)): 1.55%
Area (%) of peak at RRT 2.01 ([1]; protected sample (storage)): 1.37%
Area (%) of peak at RRT 2.05 ([1]; protected sample (storage)): 0.24%
Total impurities (%) ([1]; protected sample (storage)): 3.28%
Area (%) at RRT 1.00 (5-azacytidine) [2, 7]: 71.96%
Area (%) of peak at RRT 0.33 [2, 7]: 0.17%
Area (%) of peak at RRT 0.63 [2, 7]: 21.1%
Area (%) of peak at RRT 1.18 [2, 7]: 5.35%
Area (%) of peak at RRT 1.65 [2, 7]: 0.14%
Area (%) of peak at RRT 2.01 [2, 7]: 1.10%
Total impurities (%) [2, 7]: 28.04%
Area (%) at RRT 1.00 (5-azacytidine) [2, 8]: 3.38%
Area (%) of peak at RRT 0.33 [2, 8]: 89.92%
Area (%) of peak at RRT 0.42 [2, 8]: 3.97%
Total impurities (%) [2, 8]: 96.62%
Area (%) at RRT 1.00 (5-azacytidine) [2, 9]: 97.18%
Area (%) of peak at RRT 0.33 [2, 9]: 0.84%
Area (%) of peak at RRT 0.42 [2, 9]: 0.06%
Area (%) of peak at RRT 0.63 [2, 9]: 0.23%
Area (%) of peak at RRT 2.01 [2, 9]: 1.62%
Total impurities (%) [2, 9]: 2.82%
Area (%) at RRT 1.00 (5-azacytidine) [2, 10]: 61.64%
Area (%) of peak at RRT 0.33 [2, 10]: 0.85%
Area (%) of peak at RRT 0.39 [2, 10]: 0.11%
Area (%) of peak at RRT 0.42 [2, 10]: 0.20%
Area (%) of peak at RRT 0.63 [2, 10]: 35.24%
Area (%) of peak at RRT 1.18 [2, 10]: 0.46%
Area (%) of peak at RRT 1.65 [2, 10]: 0.39%
Area (%) of peak at RRT 2.01 [2, 10]: 0.86%
Area (%) of peak at RRT 2.05 [2, 10]: 0.17%
Total impurities (%) [2, 10]: 38.36%
Area (%) at RRT 1.00 (5-azacytidine) ([2]; Storage (reference sample)): 96.72%
Area (%) of peak at RRT 0.63 ([2]; Storage (reference sample)): 1.55%
Area (%) of peak at RRT 2.01 ([2]; Storage (reference sample)): 1.37%
Area (%) of peak at RRT 2.05 ([2]; Storage (reference sample)): 0.24%
Total impurities (%) ([2]; Storage (reference sample)): 3.28%
Degradation in liquid state (HPLC analysis) ([2]; liquid state, Table 9): significant degradation
Area (%) at RRT 1.00 (5-azacytidine) ([3]; 0 hours): 96.72%
Area (%) of peak at RRT 0.63 ([3]; 0 hours): 1.55%
Area (%) of peak at RRT 2.01 ([3]; 0 hours): 1.37%
Area (%) of peak at RRT 2.05 ([3]; 0 hours): 0.24%
Total impurities by % area ([3]; 0 hours): 3.28%
Area (%) at RRT 1.00 (5-azacytidine) ([3]; 4 hours): 96.21%
Area (%) of peak at RRT 0.63 ([3]; 4 hours): 2.04%
Area (%) of peak at RRT 2.01 ([3]; 4 hours): 1.41%
Area (%) of peak at RRT 2.05 ([3]; 4 hours): 0.24%
Total impurities by % area ([3]; 4 hours): 3.79%
Compound: Nc1ncn([C@@H]2O[C@H](CO)[C@@H](O)[C@H]2O)c(=O)n1 [5-azacytidine, 4-amino-1-β-D-ribofuranosyl-1,3,5-s-triazine-2(1H)-one]
